Results on 4 compounds are retold here after patent US20250269072A1, “PROCESSES FOR PREPARING RADIOLABELLED CONJUGATES” (CENTENARY INSTITUTE OF CANCER MEDICINE AND CELL BIOLOGY, priority 2021, published 2025).

SMILES strings stand for the structures. Like-named read-outs stand apart in the source and are kept apart here.

One series relates to proliferating cells. The settings on record: cited from earlier work.
For a further series, the system named is angiogenesis. The settings on record: in vivo; cited from earlier work.
In series [1] the test system is quiescent endothelial cells. The settings on record: quiescent endothelial cells in vitro; cited from earlier work.
For series [2] the following is noted: cited from earlier work.
A short description of series [3]: In vitro stability of labelled NODAGA-GSAO products at room temperature (HPLC). The class given is physicochemical. The procedure: The in vitro stability of the complexed product is an important determinant for the potential clinical use of a therapeutic compound. Post-labelling stability was assessed by incubation of the ^175Lu- and ^63Cu-labelled NODAGA-GSAO products at room temperature.
The percentage of labelling at different time-points following formation of the isotope-NODAGA-GSAO complex was measured. Results are shown in FIG. 5 for A) the ^175Lu-labelled product obtained from incubation for 30 minutes at pH 5.0 at 80° C. and B) the ^63Cu-labelled product obtained from incubation for 30 minutes at pH 5.0 at room temperature. At certain time points, aliquots were taken and the labelling (black circles) of NODAGA-GSAO were assessed by HPLC. Data are from one or two (average±S.D. of the two measurements) experiments.

Series [4] in a line: ^177Lu-CDI dosimetry estimated from ^68Ga-CDI biodistribution and kinetics. The arrangement: species or system human. From the text: The biodistribution and kinetics of ^68Ga-CDI was used to estimate […] dosimetry. […] These are similar to measured renal doses from ^177Lu-dotatate and ^177Lu-PSMA. Based on these estimations and comparability of renal dose to ^177Lu-dotatate and ^177Lu-PSMA, the initial […] level of ^177Lu-CDI will be approximately 2.0 GBq.

Series [5] is described as follows: Radiolysis of ^177Lu-CDI after synthesis (radio-HPLC). Format: physicochemical. On the procedure:
Labelling of CDI (54 μg) with ^177Lutetium (^177Lu) was performed in 0.083 M sodium acetate buffer at pH 5.0. 177Lu (500 MBq) and ascorbic acid (0.002 M) were added and the mixture was incubated at 85° C. for 30 min. In a similar reaction, CDI was labelled with ^177Lu in the presence of 0.01 M ascorbic acid and 0.028 M GSH.
The experiments using the radioisotope ^177Lu were performed on a Shimadzu LC-20 series LC system with two LC-20AP pumps, an SPD-20A UV/VIS detector and analysed using the LabLogic Laura software (version 4.2.11.129 SP2). […] The analytical column was an Alltima HP C18 150×4.6 mm 5 μm particle size (Hichrom, Berkshire, UK). The column was equilibrated in a mixture of 0.1% (v/v) trifluoroacetic acid in MiliQ water (mobile phase A) and acetonitrile (mobile phase B; 98/2, v/v). Samples (100 μL) were loaded on the column using the autosampler at room temperature. Products were eluted using a gradient of […] mobile phase B in mobile phase A over 0-18-28-38-42 min (^177Lu) or 0-18-28-32-33 min (^175Lu) at a flowrate of 0.6 mL/min. Absorbance was measured at 210 nm, 256 nm, and 280 nm and radioactivity was detected using a LabLogic Dual Scan-RAM.

Setting [6] is: Afshar-Oromieh et al., 4 subjects.

Consider `N[C@@H](CCC(=O)N[C@@H](CSCC(=O)Nc1ccc([As](O)O)cc1)C(=O)NCC(=O)O)C(=O)O` [GSAO, 4-(N—(S-glutathionylacetyl)amino)phenylarsenous acid], for which the toxicity result with proliferating cells is given as “toxic to proliferating cells”; in series [1], “nontoxic to quiescent endothelial cells in vitro”. In the series on angiogenesis, the effect on angiogenesis result is on record as “inhibits angiogenesis in vivo”.
Take `O=C([O-])CN(CCN(CC(=O)[O-])Cc1cc(CCC(=O)NCCCCCC(=O)NCCCC[C@H](NC(=O)N[C@@H](CCC(=O)O)C(=O)O)C(=O)O)ccc1[O-])Cc1cc(CCC(=O)O)ccc1[O-].[68Ga+3].[OH3+]` [^68Ga PSMA]: in series [2] (setting [6]), the mean effective dose is given as 2.3E-02 mSv/MBq, the renal dose was 2.6E-01 mSv/MBq and the urinary bladder dose is on record as 1.3E-01 mSv/MBq. In series [2] (Pfob et al., 5 subjects), the Effective Dose is recorded as 2.37E-02 mSv/MBq, the renal dose is reported as 1.21E-01 mSv/MBq and the urinary bladder dose is 1.64E-01 mSv/MBq.
Turning to `O=C(O)CNC(=O)[C@H](CSCC(=O)Nc1ccc([As](O)O)cc1)NC(=O)CC[C@H](NC(=O)CCC1C(=O)[O][175Lu]2[O]C(=O)CN3CCN(CCN1CC3)CC(=O)[O]2)C(=O)O` (stereo partly drawn) [^175Lu-NODAGA-GSAO], the by-products in series [3] (room temperature storage) is given as 4-7.5 % of total AUC. In series [3] (room temperature, after 14 days of storage), the labelling remaining was roughly 90%.
On to `O=C(O)CNC(=O)[C@H](CSCC(=O)Nc1ccc([As](O)O)cc1)NC(=O)CC[C@H](NC(=O)CCC1C(=O)[O][177Lu]2[O]C(=O)CN3CCN(CCN1CC3)CC(=O)[O]2)C(=O)O` (stereo partly drawn) [^177Lu-NODAGA-GSAO], for which the estimated renal dose in series [4] (combined physical decay and biological clearance model) is 0.36 mGy/MBq; in series [4] (physical decay only model), 0.98 mGy/MBq. For the same compound, the radiolysis after synthesis entry in series [5] ([…] incubation at room temperature, 0.002 M ascorbic acid) is on record as “did not show an increase in radiolysis”. The radiolysis result in series [5] (labelling in presence of 0.01 M ascorbic acid and 0.028 M GSH) is “prevented radiolysis during and up to 72 h post CDI labelling”.
